Patent US9499551B2, “Substituted pyrrolo[2,3-b]pyridines for treating cancer or inflammatory diseases” (Confluence Life Sciences, Inc., priority 2014, dated 2016)
pIC50: −log10 of the molar value.

Each molecule was assayed against T1, TAK1-TAB1 (Homo sapiens, UniProt O43318) (assay: TAK1-TAB1 binding inhibitory potency (LanthaScreen competitive binding assay, kinase tracer-236)). Settings: 10 nM TAK1-TAB1, 100 nM kinase tracer-236; read-out: TAK1-Tab Inhibition IC50.
T1 sequence (O43318 with tags, fused parts or gaps limits assumed): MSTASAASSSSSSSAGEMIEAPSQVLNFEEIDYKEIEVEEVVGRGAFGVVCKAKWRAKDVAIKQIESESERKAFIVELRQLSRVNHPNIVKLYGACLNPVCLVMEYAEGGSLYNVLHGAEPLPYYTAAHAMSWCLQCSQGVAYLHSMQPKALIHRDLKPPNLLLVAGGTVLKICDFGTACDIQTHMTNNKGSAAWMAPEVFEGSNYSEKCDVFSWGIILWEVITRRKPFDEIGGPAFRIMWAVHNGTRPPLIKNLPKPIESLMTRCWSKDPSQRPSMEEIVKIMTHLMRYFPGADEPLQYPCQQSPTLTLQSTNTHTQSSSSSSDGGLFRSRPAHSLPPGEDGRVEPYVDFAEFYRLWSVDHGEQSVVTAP
Excerpt: TAK1-TAB1 Binding Inhibitory Potency:
The ability of candidate compounds to interact with TAK1-TAB1 is quantitated by a competitive binding assay using the LanthaScreen technology developed by Life Technologies. This assay is based on the binding of a proprietary, Alexa Fluor® 647-labeled, ATP-competitive kinase inhibitor (kinase tracer-236) to the TAK1-TAB1 construct in presence of a europium-conjugated antibody, resulting in a FRET (fluorescence resonance energy transfer) signal. Displacement of the kinase tracer by compound results in a lower emission ratio upon excitation of the europium chelate. Candidate compounds are designed as potential irreversible inhibitors of TAK1-TAB1, capable of ligating to an active site cysteine residue. The time dependent nature of irreversible inhibition is investigated by performing the binding assay with and without a pre-incubation of compound and TAK1-TAB1.
The inhibitory potency of candidate compounds is measured in 20 mM HEPES pH 7.5, 10 mM MgCl2, 0.01% BSA, 0.0005% Tween-20, and 2% DMSO in the presence of 10 nM TAK1-TAB1, 2 nM Eu-anti-his antibody, and 100 nM kinase tracer-236 using a 384-well plate format. Background signal is defined in the absence of TAK1-TAB1 and uninhibited signal is defined in the presence of vehicle (2% DMSO) alone. Compounds were evaluated in an 11 point dose-response ranging from 20 μM to 0.34 nM. The binding assays are performed under two conditions to evaluate time dependence of inhibition. For the pre-incubation assay, TAK1-TAB1 and Eu-anti-his antibody are preincubated with compound or vehicle for two hours prior to the addition of kinase tracer. The non-preincubated assay is run in which TAK1-TAB1 and Eu-anti-his antibody are added to a mixture of compound and kinase tracer. IC50 values of compounds are determined using a 4 parameter logistical fit of emission ratio as a function of the concentration of compound. […]

Row | pIC50 | Structure (SMILES)
1 | ≥ 6.00 | NC(=O)/C=C/c1c[nH]c2ncc(C=O)cc12 [Example 356, (E)-3-(5-formyl-1H-pyrrolo[2,3-b]pyridin-3-yl)acrylamide]
2 | ≥ 6.00 | NC(=O)/C=C/c1c[nH]c2ncc(-c3ccc(Oc4ccccc4)cc3)cc12 [Example 342, (E)-3-(5-(4-phenoxyphenyl)-1H-pyrrolo[2,3-b]pyridin-3-yl)acrylamide]
3 | ≥ 6.00 | CN(C)C(=O)c1cnc2[nH]cc(/C=C/C(N)=O)c2c1 [Example 355, (E)-3-(3-amino-3-oxoprop-1-en-1-yl)-N,N-dimethyl-1H-pyrrolo[2,3-b]pyridine-5-carboxamide]
4 | ≥ 6.00 | CC(=O)c1ccc(-c2cnc3[nH]cc(/C=C/C(N)=O)c3n2)cc1C [Example 340, (E)-3-(2-(4-acetyl-3-methylphenyl)-5H-pyrrolo[2,3-b]pyrazin-7-yl)acrylamide]
5 | ≥ 6.00 | NC(=O)/C=C/c1c[nH]c2ncc(-c3ccc(N4CCCCC4)nc3)cc12 [Example 363, (E)-3-(5-(6-(piperidin-1-yl)pyridin-3-yl)-1H-pyrrolo [2,3-b]pyridin-3-yl)acrylamide]
6 | ≥ 6.00 | NC(=O)/C=C/c1c[nH]c2ncc(C(=O)c3ccccc3)cc12 [Example 338, (E)-3-(5-benzoyl-1H-pyrrolo[2,3-b]pyridin-3-yl)acrylamide]
7 | ≥ 6.00 | Cc1cc(C2CCC(c3cnc4[nH]cc(/C=C/C(N)=O)c4c3)CC2)cc(C(F)(F)F)c1 (centres unmarked) [Example 358, (E)-3-(5-(4-(3-methyl-5-(trifluoromethyl)phenyl)cyclohexyl)-1H-pyrrolo[2,3-b]pyridin-3-yl)acrylamide]
8 | ≥ 6.00 | CC(C)c1ccccc1-c1cnc2[nH]cc(/C=C/C(N)=O)c2n1 [Example 359]
9 | ≥ 6.00 | CC(=O)c1cccc(N2CCN(c3cnc4[nH]cc(/C=C/C(N)=O)c4c3)CC2)c1 [Example 346, (E)-3-(5-(4-(3-acetylphenyl)piperazin-1-yl)-1H-pyrrolo[2,3-b]pyridin-3-yl)acrylamide]
10 | ≥ 6.00 | NC(=O)/C=C/c1c[nH]c2ncc(-c3cc(Cl)nc(C(F)(F)F)c3)cc12 [Example 350, (E)-3-(5-(2-chloro-6-(trifluoromethyl)pyridin-4-yl)-1H-pyrrolo[2,3-b]pyridin-3-yl)acrylamide]
11 | ≥ 6.00 | NC(=O)/C=C/c1c[nH]c2ncc(-c3ccc(Oc4ccc(F)cc4)cc3)cc12 [Example 344, (E)-3-(5-(4-(4-fluorophenoxy)phenyl)-1H-pyrrolo[2,3-b]pyridin-3-yl)acrylamide]
12 | ≥ 6.00 | CC(=O)c1ccc(-c2cnc3[nH]cc(/C=C/C(N)=O)c3c2)cc1C [Example 339, (E)-3-(5-(4-acetyl-3-methylphenyl)-1H-pyrrolo[2,3-b]pyridin-3-yl)acrylamide]

The remaining lines, values behind:

Row | Structure (SMILES) | pIC50
13 | NC(=O)/C=C/c1c[nH]c2ncc(-c3ccc(C(=O)C(F)(F)F)cc3)cc12 [Example 319, (E)-3-(5-(4-(2,2,2-trifluoroacetyl)phenyl)-1H-pyrrolo[2,3-b]pyridin-3-yl)acrylamide] | ≥ 6.00
14 | CC(C)(O)c1ccc(-c2cnc3[nH]cc(/C=C/C(N)=O)c3n2)cc1 [Example 309, (E)-3-(2-(4-(2-hydroxypropan-2-yl)phenyl)-5H-pyrrolo[2,3-b]pyrazin-7-yl)acrylamide] | ≥ 6.00
15 | C#CC(=O)Nc1c[nH]c2ncc(-c3ccccc3)cc12 [Example 238, N-(5-phenyl-1H-pyrrolo[2,3-b]pyridin-3-yl)propiolamide] | < 6.00
16 | CN(C)C/C=C/C(=O)Nc1c[nH]c2ncc(-c3ccccc3)cc12 [Example 241, (E)-4-(dimethylamino)-N-(5-phenyl-1H-pyrrolo[2,3-b]pyridin-3-yl)but-2-enamide] | < 6.00
17 | CC(=O)c1cccc(-c2cnc3[nH]cc(/C=C/C(N)=O)c3n2)c1 [Example 306, (E)-3-(2-(3-acetylphenyl)-5H-pyrrolo[2,3-b]pyrazin-7-yl)acrylamide] | ≥ 6.00
18 | CCC(=O)c1ccc(-c2cnc3[nH]cc(/C=C/C(N)=O)c3c2)c(C)c1 [Example 313, (E)-3-(5-(2-methyl-4-propionylphenyl)-1H-pyrrolo[2,3-b]pyridin-3-yl)acrylamide] | ≥ 6.00
19 | CON(C)C(=O)c1ccc(-c2cnc3[nH]cc(/C=C/C(N)=O)c3c2)cc1 [Example 329, (E)-4-(3-(3-amino-3-oxoprop-1-en-1-yl)-1H-pyrrolo[2,3-b]pyridin-5-yl)-N-methoxy-N-methyl-benzamide] | ≥ 6.00
20 | NC(=O)/C=C/c1c[nH]c2ncc(-c3cc(C(F)(F)F)cc(C(F)(F)F)c3)nc12 [Example 316, (E)-3-(2-(3,5-bis(trifluoromethyl)phenyl)-5H-pyrrolo[2,3-b]pyrazin-7-yl)acrylamide] | ≥ 6.00
21 | CC(C)(O)c1ccc(-c2cnc3[nH]cc(/C=C/C(N)=O)c3n2)cn1 [Example 305, (E)-3-(2-(6-(2-hydroxypropan-2-yl)pyridin-3-yl)-5H-pyrrolo[2,3-b]pyrazin-7-yl)acrylamide] | ≥ 6.00
22 | NC(=O)/C=C/c1c[nH]c2ncc(-c3cccnc3)nc12 [Example 255, (E)-3-(2-(pyridin-3-yl)-5H-pyrrolo[2,3-b]pyrazin-7-yl)acrylamide] | < 6.00
23 | CN1CCC(C(=O)c2ccc(-c3cnc4[nH]cc(/C=C/C(N)=O)c4c3)cc2)CC1 [Example 334, (E)-3-(5-(4-(1-methylpiperidine-4-carbonyl)phenyl)-1H-pyrrolo[2,3-b]pyridin-3-yl)acrylamide] | ≥ 6.00
24 | CC(=O)c1cc(-c2cnc3[nH]cc(/C=C/C(N)=O)c3c2)ccn1 [Example 315, (E)-3-(5-(2-acetylpyridin-4-yl)-1H-pyrrolo[2,3-b]pyridin-3-yl)acrylamide] | ≥ 6.00
25 | CC(=O)c1ccc(-c2cc3c(/C=C/C(N)=O)c[nH]c3nc2C)cc1 [Example 331, (E)-3-(5-(4-acetylphenyl)-6-methyl-1H-pyrrolo[2,3-b]pyridin-3-yl)acrylamide] | ≥ 6.00
26 | CC(C)(O)c1cc(-c2cnc3[nH]cc(/C=C/C(N)=O)c3c2)ccn1 [Example 317, (E)-3-(5-(2-(2-hydroxypropan-2-yl)pyridin-4-yl)-1H-pyrrolo[2,3-b]pyridin-3-yl)acrylamide] | ≥ 6.00
27 | CC(C)OC(=O)N1CCN(c2cnc3[nH]cc(/C=C/C(N)=O)c3c2)CC1 [Example 301, (E)-isopropyl 4-(3-(3-amino-3-oxoprop-1-en-1-yl)-1H-pyrrolo[2,3-b]pyridin-5-yl)piperazine-1-carboxylate] | ≥ 6.00
28 | CC(C)(O)c1cncc(-c2cnc3[nH]cc(/C=C/C(N)=O)c3c2)c1 [Example 311, (E)-3-(5-(5-(2-hydroxypropan-2-yl)pyridin-3-yl)-1H-pyrrolo[2,3-b]pyridin-3-yl)acrylamide] | ≥ 6.00
29 | CC(C)(O)c1cccc(-c2cnc3[nH]cc(/C=C/C(N)=O)c3n2)c1 [Example 308, (E)-3-(2-(3-(2-hydroxypropan-2-yl)phenyl)-5H-pyrrolo[2,3-b]pyrazin-7-yl)acrylamide] | ≥ 6.00
30 | NC(=O)/C=C\c1c[nH]c2ncc(-c3ccc(C(O)c4nccs4)cc3)cc12 (centres unmarked) [Example 323, (Z)-3-(5-(4-(hydroxy(thiazol-2-yl)methyl)phenyl)-1H-pyrrolo[2,3-b]pyridin-3-yl)acrylamide] | ≥ 6.00
31 | NC(=O)/C=C/c1c[nH]c2ncc(-c3ccc(N4CCCCC4)nc3)nc12 [Example 320, (E)-3-(2-(6-(piperidin-1-yl)pyridin-3-yl)-5H-pyrrolo[2,3-b]pyrazin-7-yl)acrylamide] | ≥ 6.00
32 | CC(=O)c1ccc(-c2cnc3[nH]cc(/C=C/C(N)=O)c3c2)cn1 [Example 303, (E)-3-(5-(6-acetylpyridin-3-yl)-1H-pyrrolo[2,3-b]pyridin-3-yl)acrylamide] | ≥ 6.00
33 | CC(=O)c1ccc(-c2cnc3[nH]cc(/C=C/C(N)=O)c3n2)cc1 [Example 307, (E)-3-(2-(4-acetylphenyl)-5H-pyrrolo[2,3-b]pyrazin-7-yl)acrylamide] | ≥ 6.00
34 | CCOCCn1cc(-c2cnc3[nH]cc(/C=C/C(N)=O)c3c2)ccc1=O [Example 337, (E)-3-(5-(1-(2-ethoxyethyl)-6-oxo-1,6-dihydropyridin-3-yl)-1H-pyrrolo[2,3-b]pyridin-3-yl)acrylamide] | ≥ 6.00
35 | NC(=O)/C=C/c1c[nH]c2ncc(-c3ccc(=O)n(CC4CC4)c3)cc12 [Example 328, (E)-3-(5-(1-(cyclopropyl-methyl)-6-oxo-1,6-dihydropyridin-3-yl)-1H-pyrrolo[2,3-b]pyridin-3-yl)acrylamide] | ≥ 6.00
